Like-named read-outs stand apart in the source and are kept apart here.
What was measured:
[1] = molecular target: T1, Gal4‐NOR‐1 (human NOR‐1 LBD) (Homo sapiens, UniProt Q92570); test: Gal4 hybrid reporter gene assay for NOR‐1 activity in HEK293T cells; assay type: cell-based; settings: for IC50: read-out: IC50 (NOR‐1), inverse agonism; for remaining NOR‐1 activity: Gal4‐NOR‐1, remaining activity at maximum inverse agonist effect; for activity on NOR‐1 / NOR‐1 activity: Gal4‐NOR‐1, 100 μM; for type of NOR‐1 modulation: Gal4‐NOR‐1
T1 construct: coding for the hinge region and LBD of the canonical isoform of NOR‐1; expressed in transfected cells; host or cells: HEK293T
T1 sequence (Q92570 394-623 limits assumed): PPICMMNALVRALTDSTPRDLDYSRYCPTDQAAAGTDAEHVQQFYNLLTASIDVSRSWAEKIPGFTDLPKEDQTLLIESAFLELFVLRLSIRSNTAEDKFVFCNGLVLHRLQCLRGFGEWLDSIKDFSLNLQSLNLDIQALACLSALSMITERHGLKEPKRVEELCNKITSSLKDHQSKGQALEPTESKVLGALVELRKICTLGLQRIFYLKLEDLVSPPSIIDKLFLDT
Description: The screening assay was based on the Gal4 hybrid system[13] and employed a chimeric receptor composed of the human NOR‐1 LBD and the Gal4 DNA binding domain from yeast. Firefly luciferase under the control of five tandem repeats of the Gal4 response element served as reporter gene and constitutively expressed renilla luciferase was used for normalization and toxicity monitoring. Control experiments were conducted with the ligand‐independent transcriptional inducer Gal4‐VP16[14, 15] (replacing Gal4‐NOR‐1) to exclude non‐specific effects.
Hybrid reporter gene assays. The reporter gene assay was performed as reported previously[25] in HEK293T cells in 96‐well format using pFR‐Luc (Stratagene, La Jolla, CA, USA; reporter), pRL‐SV40 (Promega, Madison, WI, USA; control) and the Gal4‐NOR‐1 fusion receptor plasmid pFA‐CMV‐hNOR‐1‐LBD coding for the hinge region and LBD of the canonical isoform of NOR‐1 or pECE‐SV40‐Gal4‐VP16[15] […] In the primary screening, the core set of the Prestwick Drug Fragments Library was tested at 100 μM in two biologically independent repeats. All other samples were tested in duplicates in at least three biologically independent repeats. Luminescence was measured with a Spark 10 M luminometer (Tecan Group AG, Mannedorf, Switzerland), firefly luciferase data were divided by Renilla luciferase data and multiplied by 1000 to obtain relative light units (RLU). Fold activation was obtained by dividing the mean RLU of a test compound at a respective concentration by the mean RLU of untreated control. Dose‐response curves were fitted with the equation “[Agonist]/[Inhibitor] vs. response (three parameters)” in GraphPad Prism (version 7.00, GraphPad Software, La Jolla, CA, USA).

NOR‐1 = settings: cited from earlier work
[2] = molecular target: T2, interaction of NOR‐1 with SMRT (Homo sapiens, UniProt Q92570); test: Reporter gene assay for NOR‐1 interaction with SMRT in HEK293T cells; assay type: cell-based; settings: n=3, read-out: IC50, antagonism of NOR‐1 interaction with SMRT
T2 construct: coding for the hinge region and LBD of the canonical isoform of NOR‐1; expressed in transfected cells; host or cells: HEK293T
T2 sequence (Q92570 394-623 limits assumed): T1 sequence (Q92570 394-623 limits assumed)
Description: (§1) Reporter gene assays for NOR‐1 interactions with NCoR1 and SMRT. The interaction of NOR‐1 with NCoR1 and SMRT was studied in reporter gene assays in HEK293T cells using pFR‐Luc, pRL‐SV40 and pFA‐CMV‐hNOR‐1‐LBD in combination with either pFTI‐CMV‐NCoR1 or pFTI‐CMV‐SMRT, which code for fusion proteins composed of the transcriptional inducer VP16 and fragments of the nuclear receptor co‐regulators NCoR1 or SMRT comprising one interaction motif.[29] […] After 24 h, the medium was changed to Opti‐MEM without supplements and the cells were transiently transfected with above‐described plasmids using Lipofectamine LTX reagent (Invitrogen). […] After 16 h incubation, cells were assayed for luciferase activity using the Dual‐Glo Luciferase Assay System (Promega) and luminescence was measured with a Spark 10 M luminometer (Tecan Group Ltd). Each sample was tested in duplicates in three independent experiments. Firefly luciferase data were divided by renilla luciferase data to obtain relative light units (RLU) and RLU of each test sample were normalized to the negative control (0.1 % DMSO).

[3] = system: MYC mRNA expression in HeLa cells; assay type: cell-based; settings: 16 h, 1 at 100 and 300 μM, 19 at 10 and 30 μM, GAPDH as reference gene, n=4
From the text: The following primers were used: GAPDH: fw: [NT].

[4] = molecular target: T3, interaction of NOR‐1 with NCoR1 (Homo sapiens, UniProt Q92570); test: Reporter gene assay for NOR‐1 interaction with NCoR1 in HEK293T cells; assay type: cell-based; settings: n=3, read-out: IC50, antagonism of NOR‐1 interaction with NCoR1
T3 construct: coding for the hinge region and LBD of the canonical isoform of NOR‐1; expressed in transfected cells; host or cells: HEK293T
T3 sequence (Q92570 394-623 limits assumed): T1 sequence (Q92570 394-623 limits assumed)
Description: as §1

Gal4‐VP16 = molecular target: T4, Gal4‐VP16 (Saccharomyces cerevisiae, UniProt P04386); test: Gal4‐VP16 control reporter gene assay in HEK293T cells; assay type: cell-based; settings: 100 μM
T4 construct: host or cells: HEK293T
From the text: To rapidly probe druggability of NOR‐1 and identify potential ligand scaffolds, we have established a robust reporter gene assay to monitor NOR‐1 activity and screened a medium size fragment library for NOR‐1 modulation. The screening assay was based on the Gal4 hybrid system[13] and employed a chimeric receptor composed of the human NOR‐1 LBD and the Gal4 DNA binding domain from yeast. Firefly luciferase under the control of five tandem repeats of the Gal4 response element served as reporter gene and constitutively expressed renilla luciferase was used for normalization and toxicity monitoring. Control experiments were conducted with the ligand‐independent transcriptional inducer Gal4‐VP16[14, 15] (replacing Gal4‐NOR‐1) to exclude non‐specific effects. The commercially available fragment screening library (core set of the Prestwick drug fragments library) comprised 480 compounds with favorable fragment properties (Figure 1a) and offered high structural diversity as illustrated by low average pairwise Jaccard‐Tanimoto similarity computed on Morgan fingerprints[16] (median 0.13; Figure 1b) and by a total of 77 unique Murcko scaffolds.[17] […]
Hybrid reporter gene assays. […] Luminescence was measured with a Spark 10 M luminometer (Tecan Group AG, Mannedorf, Switzerland), firefly luciferase data were divided by Renilla luciferase data and multiplied by 1000 to obtain relative light units (RLU). […]

T4 sequence (P04386 1-147, added parts left off): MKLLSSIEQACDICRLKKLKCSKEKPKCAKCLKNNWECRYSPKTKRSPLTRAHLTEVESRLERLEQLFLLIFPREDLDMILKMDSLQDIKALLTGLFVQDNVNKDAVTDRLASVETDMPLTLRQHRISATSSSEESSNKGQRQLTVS

SMILES: COC(=O)c1c[nH]c2ccc(C)cc12 [compound 17]
- IC50 ([1]; Gal4‐NOR‐1, HEK293T cells, n=4): 35 ± 8 µM
- remaining NOR‐1 activity ([1]; n=4): 2±7%

SMILES: CCCCC[C@H](O)/C=C/[C@H]1C=CC(=O)[C@@H]1C/C=C\CCCC(=O)O [prostaglandin A2]
- effect on NOR‐1 activity (NOR‐1; through direct interaction with its LBD): weakly activates NOR‐1

SMILES: Oc1ccc(N2CCNCC2)cc1 [compound 4]
- activity on NOR‐1 [1]: inactive (100 μM)

SMILES: COC(=O)c1c[nH]c2ccc(Cl)cc12 [compound 14]
- IC50 ([1]; Gal4‐NOR‐1, HEK293T cells, n=4): 14 ± 2 µM
- remaining NOR‐1 activity ([1]; n=4): 12±4%
- improvement in inverse NOR‐1 agonist potency ([1]; versus lead 1): 3.5 fold

SMILES: Clc1ccc(N2CCNCC2)cc1 [compound 6, 4‐chlorophenylpiperazine]
- type of NOR‐1 modulation [1]: weak agonists
- NOR‐1 activity ([1]; n=4): 120±6 % NOR‐1 activity (100 μM)

SMILES: COC(=O)c1c[nH]c2c(Cl)cccc12 [compound 16]
- IC50 ([1]; Gal4‐NOR‐1, HEK293T cells, n=4): > 100 µM

SMILES: Nc1ccc(N2CCNCC2)cc1 [compound 8, 4‐aminophenylpiperazine]
- type of NOR‐1 modulation [1]: weak agonists
- NOR‐1 activity ([1]; n=4): 124±2 % NOR‐1 activity (100 μM)

SMILES: COC(=O)c1cn(-c2ccccc2)c2ccccc12 [compound 11]
- activity on NOR‐1 [1]: inactive

SMILES: COC(=O)c1c(Cl)[nH]c2ccccc12 [compound 12]
- IC50 ([1]; Gal4‐NOR‐1, HEK293T cells, n=4): > 100 µM

SMILES: COC(=O)c1c[nH]c2ccc(Br)cc12 [compound 19, Methyl 5‐bromoindole‐3‐carboxylate]
- IC50 ([1]; Gal4‐NOR‐1, HEK293T cells, n=4): 8 ± 1 µM
- remaining NOR‐1 activity ([1]; n=4): 7±3%
- IC50 [2]: 9 ± 2 µM
- effect on MYC expression [3]: induced MYC expression
- IC50 [4]: 12 ± 3 µM

SMILES: CC(=O)N1CCN(c2ccccc2)CC1 [compound 5]
- NOR‐1 activity ([1]; n=4): 93±1 % NOR‐1 activity (100 μM)

SMILES: O=C(O)CCc1ccc(Cl)cc1 [compound 3]
- type of NOR‐1 modulation [1]: agonist
- EC50 ([1]; Gal4‐NOR‐1, HEK293T cells, n=4, read-out: EC50 (NOR‐1), agonism): 44 ± 6 µM
- max. activation of NOR‐1 ([1]; Gal4‐NOR‐1, n=4): 132±4%
- effect of added inverse agonist 1 on the EC50 value of 3 (competition experiment) ([1]; fixed concentration of 1 (100 μM), n=3): did not affect the EC50 value

SMILES: Sc1ncnc2nc[nH]c12 [6‐mercaptopurine]
- binding to the NOR‐1 ligand binding domain (LBD) (NOR‐1): does not bind
- effect on NOR‐1 activity (NOR‐1; requires the N‐terminal AF‐1 of NOR‐1): enhanced NOR‐1 activity

SMILES: COC(=O)c1c[nH]c2ccc(OC)cc12 [compound 18]
- IC50 ([1]; Gal4‐NOR‐1, HEK293T cells, n=4): 43 ± 5 µM
- remaining NOR‐1 activity ([1]; n=4): 13±4%

SMILES: COc1ccc(N2CCNCC2)cc1 [compound 9, 4‐Methoxyphenylpiperazine]
- activity on NOR‐1 [1]: inactive (100 μM)

SMILES: CN1CCN(c2ccc(N)cc2)CC1 [compound 10]
- activity on NOR‐1 [1]: inactive (100 μM)

SMILES: COC(=O)c1c[nH]c2cc(Cl)ccc12 [compound 15]
- IC50 ([1]; Gal4‐NOR‐1, HEK293T cells, n=4): > 100 µM

SMILES: CC(=O)N1CCN(c2ccc(O)cc2)CC1 [compound 2]
- effect on Gal4‐VP16 induced reporter activity (Gal4‐VP16): no suppression
- type of NOR‐1 modulation [1]: inverse agonist
- IC50 ([1]; Gal4‐NOR‐1, HEK293T cells, n=4): 73 µM
- remaining NOR‐1 activity ([1]; n=4): 64±7%

SMILES: COC(=O)c1c[nH]c2cccc(Cl)c12 [compound 13]
- IC50 ([1]; Gal4‐NOR‐1, HEK293T cells, n=4): > 100 µM

SMILES: COC(=O)c1c[nH]c2ccc(-c3ccccc3)cc12 [compound 20]
- IC50 ([1]; Gal4‐NOR‐1, HEK293T cells, n=4): 4 ± 2 µM
- remaining NOR‐1 activity ([1]; n=4): 49±5%

SMILES: COC(=O)c1c[nH]c2ccccc12 [compound 1]
- effect on Gal4‐VP16 induced reporter activity (Gal4‐VP16): no suppression
- type of NOR‐1 modulation [1]: inverse agonist
- IC50 ([1]; Gal4‐NOR‐1, HEK293T cells, n=4): 47 ± 8 µM
- remaining NOR‐1 activity ([1]; n=4): 47±6%
- effect on MYC expression [3]: induced MYC expression
